From patent publication US8388975B2, “Cancer antigen peptides derived from WT1” (International Institute of Cancer Immunology, Inc., priority 2004, dated 2013)
Like-named read-outs stand apart in the source and are kept apart here. Ends that are not written are not given here.

How the values were obtained:
B-LCL cells [1] = tested on: B-LCL cells
Experimental: (§1) The cytotoxic activity of CTLs on target cells was measured by ^51Cr-release assay. The ^51Cr-labeled target cells (1×10^4 cells/100 μL in total) were cocultured with different numbers of effector cells (100 μL) in a round-bottom 96-well plate. After culturing at 37° C. for 3-5 hours, the plate was centrifuged to separate the supernatant (100 μL) which was subjected to the measurement of γ ray. Specific cytotoxicity (% specific lysis) was calculated as follows: % specific lysis=(cpm experimental release−cpm spontaneous release)/(cpm maximal release−cpm spontaneous release)×100
One week later, PBMCs were pulsed with the peptide of SEQ ID NO: 8, and used as stimulators in the stimulation. The stimulation was conducted every one week 3 times in total. After 3 times of stimulation, CD8-positive cells were enriched by negative selection method. Further, stimulation with the peptide of SEQ ID NO: 8 was conducted 2 times. […] Experiments were carried out in the same manner as above using a peptide of SEQ ID NO: 9 and a peptide of SEQ ID NO: 2.

B-LCL cells [2] = tested on: B-LCL cells; remark: listed apart in the source
Experimental: as §1

Experimental for JY cell line: (§2) After obtaining informed-consent, blood was collected from HLA-A*0201-positive healthy subjects and peripheral blood mononuclear cells (PBMCs) were isolated using Ficoll-Hypaque separation solution. HLA-A*0201-positive T2 cell lines incapable of presenting endogenous peptides to HLA due to deficit in TAP gene (J. Immunol. 150: 1763, 1993) were pulsed with the peptide of SEQ ID NO: 3 at 20 μM for 2 hours, then radiated (7500 cGy), and co-cultured with PBMCs at the cell number ratio of 1:1. As the culture solution, a complete medium composed of 45% AIM-V medium, 45% RPMI1640 medium, 10% inactivated human serum, 0.1 mM MEM non-essential amino acids, 100 ng/mL streptomycin, 100 IU/mL penicillin and 25 ng/mL 2-mercaptoethanol was used. Seven days later, the second-time stimulation was conducted in a similar manner, and thereto was added 25 IU/mL of IL-2 (Shionogi & Co., Ltd) on the next day. Stimulation was conducted five times in total, and effector cells obtained after 5 days from the last stimulation were used in the measurement of cytotoxicity.
(§3) The cytotoxic activity of CTLs on target cells was measured by ^51Cr-release assay. […] Specific cytotoxicity (% specific lysis) was calculated as follows: % specific lysis=(cpm experimental release−cpm spontaneous release)/(cpm maximal release−cpm spontaneous release)×100
Experimental for T2 cells: After obtaining informed-consent, blood was collected from HLA-A*0201-positive healthy subjects and peripheral blood mononuclear cells (PBMCs) were isolated using Ficoll-Hypaque separation solution. HLA-A*0201-positive T2 cell lines incapable of presenting endogenous peptides to HLA due to deficit in TAP gene (J. Immunol. 150: 1763, 1993) were pulsed with the peptide of SEQ ID NO: 3 at 20 μM for 2 hours, then radiated (7500 cGy), and co-cultured with PBMCs at the cell number ratio of 1:1. […]
as §3
The “spontaneous release” and the “maximal release” were measured in the supernatant obtained from the culture of target cells and that obtained from the culture of target cells treated with 1% Triton X-100 solution, respectively. […] The cytotoxic activity was measured using, as target cells, T2 cells pulsed with the same peptide as used in the stimulation or T2 cells not pulsed with the peptide.
Experimental for TF-1 cell line: as §2, §3

Row | Sequence | cytotoxic activity (% specific lysis) of CTLs induced by stimulation with the peptide (B-LCL cells [1]) | cytotoxic activity (% specific lysis) of CTLs induced by stimulation with the peptide (B-LCL cells [2]) | cytotoxic activity (% specific lysis) of CTLs induced by stimulation with the peptide (T2 cells) | cytotoxic activity of CTLs induced by stimulation with the peptide on TF-1 cells (TF-1 cell line) | cytotoxic activity of CTLs induced by stimulation with the peptide on JY cells (JY cell line)
1 | QGSLGEQQY [SEQ ID NO: 9] | more potent cytotoxic activity on B-LCL cells pulsed with the peptide than on B-LCL cells not-pulsed with the peptide | – | – | – | –
2 | VTFDGTPSY [SEQ ID NO: 8] | more potent cytotoxic activity on B-LCL cells pulsed with the peptide than on B-LCL cells not-pulsed with the peptide | – | – | – | –
3 | DQLKRHQRR [SEQ ID NO: 2] | more potent cytotoxic activity on B-LCL cells pulsed with the peptide than on B-LCL cells not-pulsed with the peptide | more potent cytotoxic activity on B-LCL cells pulsed with the peptide than on B-LCL cells not-pulsed with the peptide | – | – | –
4 | DLNALLPAV [SEQ ID NO: 3, Asp Leu Asn Ala Leu Leu Pro Ala Val] | – | – | more potent cytotoxic activity on T2 cells pulsed with the peptide than on T2 cells not-pulsed with the peptide | killed TF-1 cells | not JY cells
